Assay results reported in PMC11721022, “Standardized Chromatographic and Computational Approaches for Lipophilicity Analysis of Five Gliflozin Antidiabetic Drugs in Relation to Their Biological Activity” (Molecules, 2024).

Legend:
[1] = Experimental lipophilicity from HPLC and TLC methods combined (standardization procedure); format: physicochemical; conditions: mean over all HPLC and TLC systems
Procedure: (§1) In our study, six standards of known lipophilicity in the range of 0.62–3.5 were used. For each standard, the same chromatographic procedures were performed as for the analyzed drugs, obtaining their RF or tR values. Then, the RM, RMW, log k, and log kW values were calculated using Equations (1)–(3). In the next step, correlations between the chromatographically obtained RMW or log kW values for these six standards and their literary log P values were calculated and expressed as respective calibration equations (Table 1). In addition, using these calibration equations, the chromatographic systems were evaluated by calculating the log PEXP values for the standards. […] From these calibration equations, the experimental log PTLC and log PHPLC (log PEXP) for the examined drugs were determined, using their RMW and log kW values.

[2] = system: SGLT2; assay: SGLT2 inhibition (literature); format: biochemical; conditions: pIC50 (SGLT2, literature) minus mean log PEXP
[3] = parameters: method as in PMID 30151080, PMID 34586753; conditions: cited from earlier work
[4] = system: SGLT2; conditions: Table 6; cited from earlier work
[5] = parameters: method as in PMID 30151080, PMID 34586753; conditions: cited from earlier work; remark: listed apart in the source
[6] = TLC lipophilicity (RMW, standardized to log PEXP); format: physicochemical
Procedure: Plates (10 × 10 cm, 0.25 mm) pre-coated with silica gel RP18F254, RP8F254 and CNF254 from Merck were used as the stationary phases. The tested drugs and six reference substances were dissolved in methanol to obtain working solutions at a concentration of 2 mg/mL. Volumes of 5 µL of these working solutions were spotted onto the plates which were then developed at a distance of 9 cm in the horizontal developing chambers (Chromdes, Lublin, Poland). The ranges for the organic modifier concentration in water varied depending on the type of stationary phase and the modifier used. For RP18 and RP8 systems, acetonitrile in the range 35–60% and methanol in the range 60–85% were used. For CN systems, acetonitrile was used in the range of 40–60% while methanol was used in the range of 45–65%. […] All experiments were performed in triplicate with a constant temperature of 23 ± 0.5 °C.
as §1

[7] = HPLC lipophilicity (log kW, standardized to log PEXP); format: physicochemical
Procedure: All experiments were performed using an HPLC system equipped with a solvent delivery pump 515 and a UV/VIS detector 2487 from Waters UK Sales (Elstree, UK), a degasser 964 from Jasco Inc. (Easton, MD, USA), and LiChrospher RP18, RP8 and CN columns (125 × 4.0 mm, 5 µm) from Merck. For RP18 and RP8 stationary phases, acetonitrile was used in the range of 35–60% and methanol in the range of 55–80%. For CN adsorbent, acetonitrile was used in the range 30–55% and methanol in the range 45–70%. For all chromatographic systems, a 5% step change in the concentration of the organic modifier was applied (Table S2 in Supplementary Files). The flow for each mobile phase and each chromatographic run was 1 mL/min while detection was performed at 260 nm. The analyzed drugs and six reference substances were dissolved in methanol to obtain concentrations of 0.1 mg/mL and injected into the column in the volume of 20 µL. All experiments were performed in triplicate with a constant temperature of 23 ± 0.5 °C.
as §1

[8] = parameters: method as in earlier work; conditions: established lipophilicity of standards; cited from earlier work
[9] = LiChrospher CN HPLC column (125 × 4.0 mm, 5 µm), HPLC.CN/ACN (CN column, acetonitrile modifier)
[10] = LiChrospher CN HPLC column (125 × 4.0 mm, 5 µm), HPLC.CN/MeOH (CN column, methanol modifier)
[11] = LiChrospher RP18 HPLC column (125 × 4.0 mm, 5 µm), HPLC.RP18/MeOH
[12] = LiChrospher RP8 HPLC column (125 × 4.0 mm, 5 µm), HPLC.RP8/ACN
[13] = LiChrospher RP18 HPLC column (125 × 4.0 mm, 5 µm), HPLC.RP18/ACN
[14] = HPLC.CN/MeOH (CN column, methanol modifier)
[15] = LiChrospher RP8 HPLC column (125 × 4.0 mm, 5 µm), HPLC.RP8/MeOH

chromatographic logP [7, 13] | SMILES | log PEXP (Mean ± SD) [1] | LLE (lipophilic ligand efficiency) [2] | PB (protein-binding capacity) [3] | IC50 [4] | CL (apparent total clearance) [5] | VD (apparent volume of distribution) [5] | chromatographic logP ([6]; TLC.CN/ACN) | chromatographic logP ([6]; TLC.CN/MeOH) | chromatographic logP ([6]; TLC.RP8/ACN) | chromatographic logP ([6]; TLC.RP8/MeOH) | chromatographic logP ([6]; TLC.RP18/ACN) | chromatographic logP ([6]; TLC.RP18/MeOH) | log PEXP ([7]; HPLC.RP8/MeOH) | chromatographic logP [7, 9] | chromatographic logP [7, 10] | chromatographic logP [7, 11] | chromatographic logP [7, 12] | T0.5 (half-life) [5] | further results
 | Cc1ccc([C@@H]2O[C@H](CO)[C@@H](O)[C@H](O)[C@H]2O)cc1Cc1ccc(-c2ccc(F)cc2)s1 [CANA, canagliflozin] | 3.99 ± 0.91 | 4.67 | 99% | 2.2 nM | 11.52 L/h | 83.5 L | 2.4 | 5.86 | 3.55 | 4.07 | 3.47 | 4.43 | 4.43 | 3.73 | 4.91 | 4.55 |  |  | log PEXP ([7]; HPLC.RP8/ACN): 3.23; log PEXP ([7]; HPLC.RP18/ACN): 3.28
2 | CCOc1ccc(Cc2cc([C@@H]3O[C@H](CO)[C@@H](O)[C@H](O)[C@H]3O)ccc2Cl)cc1 [DAPA, dapagliflozin] | 2.83 ± 0.78 | 6.12 | 91% |  | 12.42 L/h | 118 L | 2.03 | 4.72 | 2.3 |  | 2.22 | 3.58 | 3.20 |  | 3.08 | 3.27 | 2.11 |  | log PEXP ([6]; TLC.RP8/MeOH): 3.14; log PEXP ([7]; HPLC.CN/ACN (CN column, acetonitrile modifier)): 2.34
1.35 | OC[C@H]1O[C@@H](c2ccc(Cl)c(Cc3ccc(O[C@H]4CCOC4)cc3)c2)[C@H](O)[C@@H](O)[C@@H]1O [EMPA, empagliflozin] | 2.28 ± 0.73 | 6.23 | 86% |  | 10.6 L/h | 73.8 L | 1.87 | 3.51 | 1.68 | 2.48 |  | 2.99 |  | 2.3 |  | 2.85 |  | 12.4 h | log PEXP ([6]; TLC.RP18/ACN): 1.30; log PEXP [7, 14]: 2.66; log PEXP ([7]; HPLC.RP8/ACN): 1.70; chromatographic logP [7, 15]: 2.78
 | CCOc1ccc(Cc2cc([C@]34OC[C@](CO)(O3)[C@@H](O)[C@H](O)[C@H]4O)ccc2Cl)cc1 [ERTU, ertugliflozin] | 3.04 ± 0.61 | 6.02 | 94% | 0.87 nM | 10.68 L/h | 85.5 L | 2.01 | 3.97 |  | 3.54 | 3.13 | 3.27 |  | 2.49 | 3.36 | 3.59 | 2.4 | 11 h | log PEXP ([6]; TLC.RP8/ACN): 2.99; log PEXP ([7]; HPLC.RP18/ACN): 2.22; chromatographic logP [7, 15]: 3.49
 | Nc1ccccc1O [S1, 2-aminophenol] |  |  |  |  |  |  |  |  |  |  |  |  |  |  |  |  |  |  | log P [8]: 0.62
 | c1ccc(Nc2ccccc2)cc1 [S6, diphenylamine] |  |  |  |  |  |  |  |  |  |  |  |  |  |  |  |  |  |  | log P [8]: 3.5

SMILES | chromatographic logP [7, 13] | log PEXP (Mean ± SD) [1] | LLE (lipophilic ligand efficiency) [2] | PB (protein-binding capacity) [3] | IC50 [4] | CL (apparent total clearance) [5] | VD (apparent volume of distribution) [5] | chromatographic logP ([6]; TLC.CN/ACN) | chromatographic logP ([6]; TLC.CN/MeOH) | chromatographic logP ([6]; TLC.RP8/ACN) | chromatographic logP ([6]; TLC.RP8/MeOH) | chromatographic logP ([6]; TLC.RP18/ACN) | chromatographic logP ([6]; TLC.RP18/MeOH) | log PEXP ([7]; HPLC.RP8/MeOH) | chromatographic logP [7, 9] | chromatographic logP [7, 10] | chromatographic logP [7, 11] | chromatographic logP [7, 12] | T0.5 (half-life) [5] | further results
CCOc1ccc(Cc2cc([C@@H]3O[C@H](SC)[C@@H](O)[C@H](O)[C@H]3O)ccc2Cl)cc1 [SOTA, sotagliflozin] | 3.4 | 3.94 ± 0.67 | 4.8 | 98% | 1.8 nM | 261 L/h | 9392 L | 2.32 | 4.61 | 4.08 | 4.26 | 3.69 | 4.5 | 4.43 | 3.59 |  |  | 3.28 | 21 h | log PEXP [7, 14]: 4.57; log PEXP ([7]; HPLC.RP18/MeOH): 4.50
